The values that follow are results of earlier work, collected in article PMC5677520 (Journal of medicinal chemistry, 2017).

The conditions of this series: result in words.

cylindrocyclin: the passive permeabilities result is reported as “druglike”.

On to `CC[C@H](C)[C@@H]1NC(=O)c2csc(n2)[C@@H](C)NC(=O)[C@H]2N=C(O[C@@H]2C)[C@H](C(C)C)NC(=O)c2csc(n2)[C@@H](Cc2ccccc2)NC(=O)[C@H]2N=C1O[C@@H]2C` [patellamide C], for which the passive permeabilities result is given as “druglike”.
